These results are taken from US20240156802A1, “METHODS FOR TREATING DISORDERS AMELIORATED BY MUSCARINIC RECEPTOR ACTIVATION” (KARUNA THERAPEUTICS, INC., priority 2021, published 2024).

Data set [1] in a line: Phase 1b exploratory PK of xanomeline in healthy elderly subjects given KarXT. It is filed as in vivo, human. As to conditions: for blood levels in healthy elderly subjects compared with adults under 65: Cohorts 1 and 2, lower oral doses; for Cmax: human, plasma, oral. The protocol:
(§1) The purpose of this Phase 1b clinical trial was to evaluate the safety and tolerability of KarXT in healthy elderly volunteers and to assess its potential efficacy and safety in dementia-related psychosis (DRP). In the Phase 1b trial, the various doses and ratios were evaluated for both xanomeline and trospium in healthy elderly volunteers using a flexible dosing protocol titrated over about 2 to 3 weeks. The maximum dose was reached on Day 12, 15, and 17 in Cohorts 1, 2, and 3, respectively. Dosing lasted a total of 14, 18, and 20 days, respectively. Each cohort consisted of 16 healthy elderly volunteers.
(§2) This was a Phase 1, randomized, double-blind, multiple-dose, adaptive-design study evaluating the safety, tolerability, and exploratory PK of KarXT in healthy elderly subjects. The study consisted of a screening period of up to 28 days. This inpatient investigative period included a treatment period and a post-treatment observation period. A follow-up visit was completed 7±3 days after administering the final dose of the study drug. For Cohort 1, the inpatient investigative period was up to 17 days, including admission, a treatment period of up to 14 days, and a 2-day post-treatment observation period. For Cohort 2, the inpatient investigative period was up to 21 days, including admission, a treatment period of up to 18 days, and a 2-day post-treatment observation period. For Cohort 3, the inpatient investigative period was up to 23 days, including admission, a treatment period of up to 20 days, and a 2-day post-treatment observation period.
Subjects assigned to active treatment in Cohorts 1 and 2 started treatment with a lead-in dose of KarXT for 2 days. Subjects assigned to active treatment in Cohort 3 started treatment with a lead-in dose of KarXT for 4 days. KarXT doses were increased beginning on Day 3 (or Day 5 for Cohort 3) according to cohort-specific plans (FIGURE S 1) to achieve the following final cohort-specific total daily dose (TDD) of KarXT, if tolerated: • Cohort 1: 200/40 mg • Cohort 2: 200/30 mg • Cohort 3: 150/20 mg
The assessment of adverse events, clinical laboratory samples, electrocardiograms (ECGs), vital signs (including orthostatic vital signs), urine output monitoring, Columbia-Suicide Severity Rating Scale (C-SSRS), serial PK sampling, and collecting saliva to measure saliva volume were performed at defined time points during the study.
Table 2 contains the xanomeline Cmax data collected on the final day of the dosing period for cohorts 1, 2, and 3 in the healthy elderly trial compared to day 28 (last day PK data was collected) in the EMERGENT-1 trial for a patient population of ages 18-60 inclusive.

A short description of data set [2]: Phase 1b safety and tolerability of KarXT in healthy elderly subjects (adverse events). It is filed as in vivo, human. As to conditions: 30 mg TDD versus 40 mg TDD, given with xanomeline, normal elderly volunteers. The protocol:
as §1
as §2, with “For Cohort 3, the inpatient investigative period was up to 23 days, including admission, a treatment period of up to 20 days, and a 2-day post-treatment observation period.” left out

The conditions of data set [3]: 125/30 mg dose group in EMERGENT-1, day 28, ages 18-60, TDD 250 mg; cited from earlier work.
For data set [4] the following is noted: 26-week study of Alzheimer's disease; cited from earlier work.
For data set [5] the following is noted: 25-75 mg TID, 75-225 mg TDD; cited from earlier work.

In the case of `O=C(O[C@H]1C[C@H]2CC[C@@H](C1)[N+]21CCCC1)C(O)(c1ccccc1)c1ccccc1` [trospium, trospium chloride], in data set [1], the “blood levels in healthy elderly subjects compared with adults under 65” value is reported as “higher blood levels”. Besides, the “tolerability by trospium dose” value in data set [2] is given as “performed better”.
`CCCCCCOc1nsnc1C1=CCCN(C)C1` [Xanomeline, xanomeline]: the “mean Cmax of xanomeline” value in data set [3] was 9.4 ± 1.5 ng/mL. Also, the dropout rate in data set [4] is 56%. Moreover, the “blood levels in healthy elderly subjects compared with adults under 65” value in data set [1] was “higher blood levels”. For the same molecule, the maximum concentration (Cmax) stood at 7.3 ± 2 ng/mL in data set [1] (Cohort 1, final day of dosing, average dose before PK 67 mg, average TDD 172 mg); 14.2 ± 5.3 ng/mL in data set [1] (Cohort 2, final day of dosing, average dose before PK 61 mg, average TDD 156 mg); 7.2 ± 2 ng/mL in data set [1] (Cohort 3, final day of dosing, average dose before PK 39 mg, average TDD 116 mg). Moreover, in data set [1] (oral xanomeline about 100 to 200 mg per day, healthy elderly volunteers), the “mean plasma levels (Cmax) compared with EMERGENT-1 (200-250 mg xanomeline)” value is reported as “comparable to, or slightly higher than”. Further, the effect on schizophrenia result in data set [5] is listed as “alleviated”.
